Reference: patent publication US20220133753A1, “COMPOSITIONS AND METHODS USEFUL FOR TREATING DISEASES CHARACTERIZED BY INSUFFICIENT PANTOTHENATE KINASE ACTIVITY” (Comet Therapeutics, Inc., priority 2016, published 2022)
One block for each compound: values may come before it.

Key:
[1] = test system: conversion of CoA into 4′-phosphopantetheine in serum; format: biochemical; conditions: serum pre-treated with the agent, CoA 10 μM, 3 hours
Experimental: (PpanSH=4′-phosphopantetheine; in all panels CoA was added to the indicated sera with a final starting concentration of 10 μM measured by HPLC analysis and percentages relative to CoA incubation for 3 hours in PBS (=100%) are indicated on the y-axis).
Serum from various species (fetal calf, mouse and human) was pre-conditioned, and CoA conversion into 4′-phosphopantetheine was assessed. First, the effect of heat inactivation of the serum was studied. […] Second, the conversion of CoA to 4′-phosphopantetheine requires the hydrolysis of a phosphoanhydride bond, which is typically catalyzed by (pyro)phosphatases or hydrolases. The majority of enzymes in the known family of (pyro)phosphatases and hydrolases depend on metal ions for their activity. To test these candidates, EDTA was added to serum to chelate metal ions.

Drosophila S2 cells = assay: HoPan treatment of Drosophila S2 cells in combination with CoA or 4′-phosphopantetheine; format: cell-based; conditions: HoPan alone
Experimental: HoPan treatment of Drosophila S2 Cell in combination with CoA or 4′-phosphopantetheine treatment: Drosophila Schneider's S2 cells were maintained at standard conditions as explained above. Cells in the exponential phase of growth were used for all the experiments. Different indicated concentrations of CoA or 4′-phosphopantetheine (deuterium labelled PPanSH(D4) or unlabeled PPanSH) were added to S2 cells either in the presence or absence of 0.5 mM HoPan (Zhou Fang Pharm Chemical, China) for 48 h. Similarly, Drosophila S2 cells were treated with different concentrations of PPanSH(D4) at either 25° C. or 4° C. and cells were then harvested at various time points to access transport of PPanSH(D4). Stable isotope labelled PPanSH containing 4 deuterium atoms was purchased from Syncom (Groningen, The Netherlands) as a sodium salt (chemical structure is provided in FIG. 13A). As a read out cell count, intracellular total CoA and PPanSH levels (both labelled and unlabeled levels wherever appropriate) and histone acetylation levels were analyzed as explained below.
Drosophila S2 Cell Immunofluorescence Staining: For immunofluorescence Drosophila S2 cells were seeded on Poly-L-Lysine coated (Sigma-Aldrich) glass microscope slides and allowed to settle for 45 min. Cells were fixed with 3.7% formaldehyde (Sigma Aldrich) for 20 min, washed briefly with PBS+0.1% Triton-X-100 (Sigma Aldrich) and permeabilized with PBS+0.2% Triton-X-100 for 20 min. The slides were incubated in primary antibody (rabbit anti-AcLys, Cell Signaling Cat No: 9441, 1:500) to visualize histone acetylation levels in PBS+0.1% Triton-X-100 overnight and after an additional washing step in PBS+0.1% Triton-X-100 they were incubated in secondary goat anti-rabbit-Alexa488 antibody (Molecular Probes) for two hours at room temperature (RT). F-actin was detected with Rhodamin-Phalloidin (20 U/ml)(Invitrogen) and DNA by staining with DAPI (0.2 ug/ml) (Thermo Scientific). Finally the samples were mounted in 80% glycerol and analyzed using a Leica fluorescence microscope with Leica software. Adobe Photoshop and Illustrator (Adobe Systems Incorporated, San Jose, Calif., USA) were used for image assembly.

[2] = test system: Drosophila w1118 control fly line; assay: Drosophila HoPan toxicity and CoA rescue experiment (eclosion); format: in vivo; conditions: HoPan in the food during development
From the text: Drosophila HoPan Toxicity and CoA Rescue Experiment: One week old w1118 flies (in the ratio 10 females and 5 males) were kept in vials containing standard fly food with or without HoPan and CoA at indicated concentrations. The flies were allowed to lay eggs for 2 days, after which the adults were discarded. The resulting offspring were allowed to develop. The numbers of flies which eclosed were counted to evaluate HoPan toxicity and CoA rescue efficiency.

HEK293 cells = assay: HoPan treatment of mammalian HEK293 cells in combination with CoA or 4′-phosphopantetheine; format: cell-based, human; conditions: HoPan alone
Experimental: HoPan treatment of mammalian HEK293 Cells in combination with CoA and 4′-phosphopantetheine treatment: HEK293 cells were maintained in dMEM (Invitrogen) supplemented with 10% fetal calf serum (Gibco) and antibiotics (penicillin/streptomycin, Invitrogen). For HoPan treatment, cells were cultured in custom made dMEM without vitamin B5 (Thermo Scientific) supplemented with dialyzed FCS (Thermo Scientific). CoA or PPanSH was added to HEK293 cells for the final concentration of 25 uM, either in the presence or absence of HoPan (0.5 mM) for 4 days, followed by analysis for phenotype and rescue efficiency of CoA and PPanSH.
Western blot analysis and Antibodies: For Western blot analysis, cells were collected and washed with phosphate buffer saline (PBS), followed by centrifugation. The cells were lysed and sonicated in 1X Laemmli Sample Buffer and boiled for 5 min with 5% β-mercaptoethanol (Sigma). Protein content was determined using DC protein assay (BioRad). Equal amounts of protein were loaded on a 10 or 12.5% SDS-PAGE gel, transferred onto PVDF membranes and blocked with 5% milk in PBS/0.1% Tween, followed by overnight incubation with primary antibodies. The primary antibodies used were: rabbit-anti dPANK/fbl, 1:4000 Eurogentec custom made as described previously5, mouse anti-tubulin (Sigma Aldrich Cat no: T5168, 1:5000), anti-acetyl-Histone3 (Active Motif Cat no: 39139, 1:2000), anti GAPDH (Fitzgerald Cat no: 10R-G109a, 1:10000), rabbit anti COASY (Abcam Cat no: AB129012, 1:1000). Appropriate HRP-conjugated secondary antibodies (Amersham) were used and detection was performed using enhanced chemi-luminescence (Pierce cat nog: 32106) and Amersham hyperfilm (GE Healthcare). Band intensities were quantified with Image-studio software.

[3] = Parallel Artificial Membrane Permeability Assay (PAMPA); format: in vitro ADME; conditions: PAMPA
Experimental: FIG. 13E is a depiction of a Parallel Artificial Membrane Permeability Assay (PAMPA). Experiments were performed according to the manufacturer's instructions. In this assay, a two-well system is separated by an artificial lipid-oil-lipid membrane (shown in grey). To the lower (donor) compartment, a compound dissolved in buffer is added, the upper (acceptor) compartment contains only buffer. After 5 hours of incubation, concentration of compound is measured in both wells to assess its propensity to diffuse over the artificial membrane. The permeability was calculated according to the manufacturer's instruction (formulas are depicted to the right). Compounds that are below the assay threshold are predicted to be unable to pass membranes passively, whereas compounds above the threshold are able to pass membranes passively. Ceq=Equilibrium Concentration, CD=Concentration in donor well, VD=Volume of donor well (0.3 ml), CA=Concentration in acceptor well, VA=Volume of acceptor well (0.2 ml), P=Permeability, S=Membrane area (0.3 cm2), t=Incubation time (18000 s).
PAMPA assay procedure: Parallel Artificial Membrane Permeability Assay (PAMPA) was performed and processed according to manufacturer's instructions (BD Gentest Pre-coated PAMPA plates). Briefly, two superimposed wells are separated by an artificial lipid-oil-lipid membrane. The compound of interest (PPanSH, CoA, caffeine, amiloride) was added to the bottom well in phosphate-buffered saline, whereas the top well was filled with phosphate-buffered saline alone. After 5 h of incubation at room temperature, concentrations of the different compounds were measured using UV-VIS absorption spectroscopy (BMG Labtech SPECTROstar Omega) along with calibration curves for all compounds. The permeability efficiency was further calculated according to manufacturer's instructions. For caffeine and amiloride, four replicates were performed; for PPanSH and CoA twelve replicates were performed. Caffeine and amiloride were obtained from Sigma.

[4] = test system: primary human fibroblasts from healthy controls, MCAD deficiency and PA deficiency patients; assay: Mitochondrial stress test (Seahorse), basal OCR of primary fibroblasts; format: cell-based; conditions: data not shown
From the text: A study was thus performed to test the ability of S-acetyl-(S)-4′-phosphopantetheine to facilitate increased basal oxidative respiration in primary fibroblast cultures from patients diagnosed with MCAD deficiency and PA deficiency. Impaired metabolism were observed through functional measurements of respiration using a Seahorse XF Analyzer, where oxygen consumption rate (OCR) reflects oxidative respiration.
Patient derived cell lines were subject to a mitochondrial stress test according to standard protocol with a cell seeding density of 30 k cells/well (n=2) in glucose free media. After incubation with various concentrations of S-acetyl-4′-phosphopantetheine or vehicle for 24 h, rescue potential was assessed by increase in basal OCR (average of six readings between 30-70 min), relative to control: basal OCR from vehicle treatment was set to 1.0. […] Experiment was performed in two replicates: systematically outlying values caused by seeding errors, port failures, or values within background were excluded from analysis.

[5] = test system: MCAD patient fibroblast cell lines; assay: Mitochondrial stress test (Seahorse), reserve capacity of MCAD patient fibroblasts; format: cell-based, human; conditions: all cell lines, data not shown
From the text: Medium-chain acyl-CoA dehydrogenase (MCAD) deficiency is a condition in which the body's capacity to break down fats with medium chain lengths is impaired, caused by mutations in the ACADM gene, which can lead to hypoglycaemia, and liver dysfunction. Left untreated, it can lead to seizures, coma and other serious health problems, with acute symptoms often preceded by extended periods of fasting or an infection with vomiting. Impaired metabolism were observed through functional measurements of respiration using a Seahorse XF Analyzer, where oxygen consumption rate (OCR) reflects oxidative respiration.
A study was performed to test the Rescue potential of S-acetyl-4′-phosphopantetheine in primary patient fibroblast model of MCAD deficiency. MCAD patient fibroblast cell lines (genotyped as containing homozygous K304E mutations in ACADM) were subject to a mitochondrial stress test according to standard protocol with a cell seeding density of 30 k cells/well (n=2). Rescue potential was assessed by increase in reserve capacity: defined as the difference between basal and maximal OCR, controlled by subtracting values for non-mitochondiral respiration (after rotenone treatment). The study was performed in two replicates.

SMILES: Nc1ncnc2c1ncn2[C@@H]1O[C@H](COP(=O)(O)OP(=O)(O)OP(=O)(O)O)[C@@H](O)[C@H]1O [ATP]
effect on conversion (degradation) of CoA into 4′-phosphopantetheine in serum [1]: competitively blocked the conversion

SMILES: O=C(O)CN(CCN(CC(=O)O)CC(=O)O)CC(=O)O [EDTA]
effect on conversion (degradation) of CoA into 4′-phosphopantetheine in serum [1]: completely prevented the formation of 4′-phosphopantetheine

SMILES: CC(C)(CO)[C@@H](O)C(=O)NCCCC(=O)O [HoPan, Hopantenate]
cell count of S2 cells (Drosophila S2 cells): induced a decrease in cell count | histone acetylation levels of S2 cells (Drosophila S2 cells): induced a decrease | intracellular CoA levels (Drosophila S2 cells; S2 cells, HPLC): significantly reduced | intracellular levels of 4′-phosphopantetheine (Drosophila S2 cells; S2 cells, HPLC): reduced levels of 4′-phosphopantetheine | eclosion rate [2]: decreased | larval lethality [2]: larval lethality was induced | intracellular CoA levels (HEK293 cells; HEK293 cells, HPLC): significantly reduced | cell count of HEK293 cells (HEK293 cells): decreased cell count | histone acetylation of HEK293 cells (HEK293 cells): impaired histone acetylation

SMILES: Cc1ccc(C(=O)Nc2ccc(S(=O)(=O)O)c3cc(S(=O)(=O)O)cc(S(=O)(=O)O)c23)cc1NC(=O)c1cccc(NC(=O)Nc2cccc(C(=O)Nc3cc(C(=O)Nc4ccc(S(=O)(=O)O)c5cc(S(=O)(=O)O)cc(S(=O)(=O)O)c45)ccc3C)c2)c1 [suramin]
effect on conversion (degradation) of CoA into 4′-phosphopantetheine in serum [1]: able to inhibit

membrane permeation (PAMPA) [3]: poorly permeating molecule
SMILES: N=C(N)NC(=O)c1nc(Cl)c(N)nc1N [amiloride]

SMILES: [F-].[Na+] [sodium fluoride, Sodium fluoride]
effect on conversion (degradation) of CoA into 4′-phosphopantetheine in serum [1]: only mild or no inhibition

SMILES: Cn1c(=O)c2c(ncn2C)n(C)c1=O [caffeine]
membrane permeation (PAMPA) [3]: well-permeating compound

SMILES: C=C(C)[C@H]1Cc2c(ccc3c2O[C@@H]2COc4cc(OC)c(OC)cc4[C@@H]2C3=O)O1 [Rotenone]
cell line response to positive control [4]: generated expected profiles | cell line response to positive control [5]: generated expected profiles of ETC inhibition

SMILES: Nc1ncnc2c1ncn2[C@@H]1O[C@H](COP(=O)(O)OP(=O)(O)O)[C@@H](O)[C@H]1O [ADP]
effect on conversion (degradation) of CoA into 4′-phosphopantetheine in serum [1]: competitively blocked the conversion

SMILES: c1ccc([C@H]2CN3CCSC3=N2)cc1 [Levamisole, levamisole]
effect on conversion (degradation) of CoA into 4′-phosphopantetheine in serum [1]: only mild or no inhibition

SMILES: O=S(=O)(O)c1cc(N=C=S)ccc1C=Cc1ccc(N=C=S)cc1S(=O)(=O)O [DIDS, 4,4′-diisothiocyanatostilbene-2,2′ disulphonic acid]
effect on conversion (degradation) of CoA into 4′-phosphopantetheine in serum [1]: able to inhibit
